Test results published in patent US4950818A, “Method for treating ulcer” (Kuraray Company, Ltd., priority 1988, dated 1990).

Assays:
[1] = system: HCl-ethanol-induced ulcer at the mucosa of the stomach; assay: Antiulcer activity (HCl-ethanol ulcer); assay type: in vivo, rats; settings: rat, one hour before HCl-ethanol; for inhibition in vivo at 5 mg/kg: 5 mg/kg oral; for inhibition in vivo at 2.5 mg/kg: 2.5 mg/kg oral; for inhibition in vivo at 1 mg/kg: 1 mg/kg oral
Experimental: 1.5 ml of aqueous 60% ethanol solution containing 150 mM hydrochloric acid was orally administered to rats. One hour thereafter the rats were sacrificed and the length (mm) of HCl-ethanol-induced ulcer which was generated at the mucosa of the stomach was measured. Sum of the length of ulcer per animal is defined as ulcer coefficient. Specimens were each orally administered one hour before the HCl-ethanol administration. Inhibition rate was calculated by dividing the difference of ulcer coefficients of the control group and the specimen-administered group by the ulcer coefficient of the control group.

[2] = system: pylorus ligation ulcer at the proventriculus part; assay: Antiulcer activity (pylorus ligation ulcer); assay type: in vivo, rats; settings: rat, 100 mg/kg oral, 30 minutes before pylorus ligation; 13 hours
Experimental: After rats weighing 210 to 230 g were made to fast for 24 hours, each pylorus part was ligated under ether anesthesia according to Shay et al. method [Castroenterogy, 5, 43 (1945)]. After leaving for 13 hours the animals were sacrificed, and each ulcer which had been generated at the proventriculus part was macroscopicly observed and evaluated according to the following 5 steps of ulcer index:
2; There are hyperemia or 5 or less of small ulcers
(diameter less than 3 mm).
3; There are 5 or more of small ulcers or one large
ulcer (diameter equal to or more than 3 mm).
4; There are 2 or more of large ulcers.
Compound (1) (specimen) as prepared according to the method in Reference example and spizofurone as a control specimen were orally administered 30 minutes before the pylorus ligation. Inhibition rate was calculated by dividing the difference of ulcer coefficients of the control group and the specimen-administered group by the ulcer coefficient of the control group.

[3] = Acute toxicity (oral); settings: mouse, in vivo, male ICR-strain mice
Experimental: Acute toxicity tests through oral administration were carried out using male ICR-strain mice (5 weeks old).

O=C1C=C(/C=C/c2ccc(F)cc2)C(O)O1 (centres unmarked) [(9)]
inhibition in vivo at 5 mg/kg ([1]; 1 h, read-out: Inhibition rate): 100%

Cc1cc(C)c(/C=C/C2=CC(=O)OC2O)c(C)c1 (centres unmarked) [Compound (3)]
inhibition in vivo at 5 mg/kg ([1]; 1 h, read-out: Inhibition rate): 100%

Cc1ccc(/C=C/C2=CC(=O)OC2O)cc1 (centres unmarked) [(2)]
inhibition in vivo at 5 mg/kg ([1]; 1 h, read-out: Inhibition rate): 98.3%

COc1ccc(/C=C/C2=CC(=O)OC2O)cc1 (centres unmarked) [(5)]
inhibition in vivo at 2.5 mg/kg ([1]; 1 h, read-out: Inhibition rate): 98.8%

O=C1C=C(/C=C/c2ccc(Cl)cc2)C(O)O1 (centres unmarked) [(10)]
inhibition in vivo at 5 mg/kg ([1]; 1 h, read-out: Inhibition rate): 100%

O=C1C=C(/C=C/c2ccccc2)C(O)O1 (centres unmarked) [Compound (1), 5-hydroxy-4-[2-phenyl-(E)-ethenyl]-2(5H)-furanone]
inhibition in vivo at 5 mg/kg ([1]; 1 h, read-out: Inhibition rate): 97.9%
Inhibition rate [2]: 80.3%
LD50 [3]: ≥ 2000 mg/kg

O=C1C=C(/C=C/c2ccc([N+](=O)[O-])cc2)C(O)O1 (centres unmarked) [(13)]
inhibition in vivo at 2.5 mg/kg ([1]; 1 h, read-out: Inhibition rate): 34.1%

CCc1ccc(/C=C/C2=CC(=O)OC2O)cc1 (centres unmarked) [(4)]
inhibition in vivo at 2.5 mg/kg ([1]; 1 h, read-out: Inhibition rate): 86.2%

O=C1C=C(/C=C/c2cccc(O)c2)C(O)O1 (centres unmarked) [(16)]
inhibition in vivo at 2.5 mg/kg ([1]; 1 h, read-out: Inhibition rate): 42.7%

COc1cccc(/C=C/C2=CC(=O)OC2O)c1OC (centres unmarked) [(6)]
inhibition in vivo at 1 mg/kg ([1]; 1 h, read-out: Inhibition rate): 59.8%

N#Cc1ccc(/C=C/C2=CC(=O)OC2O)cc1 (centres unmarked) [(15)]
inhibition in vivo at 5 mg/kg ([1]; 1 h, read-out: Inhibition rate): 99.4%

COc1ccc(OC)c(/C=C/C2=CC(=O)OC2O)c1 (centres unmarked) [(7)]
inhibition in vivo at 5 mg/kg ([1]; 1 h, read-out: Inhibition rate): 98.6%

O=C1C=C(/C=C/c2ccc(Cl)cc2Cl)C(O)O1 (centres unmarked) [(12)]
inhibition in vivo at 5 mg/kg ([1]; 1 h, read-out: Inhibition rate): 54.1%

CC(=O)c1ccc2c(c1)C(=O)C1(CC1)O2 [Spizofurone, reference compound]
Inhibition rate ([1]; 100 mg/kg oral): 86.6%
Inhibition rate [2]: 1.5%

CC(=O)CCC=C(C)CCC=C(C)CCC=C(C)CCC=C(C)C [Teprenone, reference compound]
inhibition in vivo at 25 mg/kg ([1]; 1 h, 25 mg/kg oral, read-out: Inhibition rate): 48.9%

O=C1C=C(/C=C/c2cccc(Cl)c2)C(O)O1 (centres unmarked) [(11)]
inhibition in vivo at 2.5 mg/kg ([1]; 1 h, read-out: Inhibition rate): 91%

O=C1C=C(/C=C/c2c(F)c(F)c(F)c(F)c2F)C(O)O1 (centres unmarked) [(8)]
inhibition in vivo at 1 mg/kg ([1]; 1 h, read-out: Inhibition rate): 67.4%
